The structures appear in SMILES notation.

The source of these data is publication PMC7596181 (Frontiers in Immunology, 2020).

This test deals with T1, mouse TLR4 (Mus musculus, UniProt Q9JHF9+Q9QUK6).
T1 sequence (Q9QUK6 26-835): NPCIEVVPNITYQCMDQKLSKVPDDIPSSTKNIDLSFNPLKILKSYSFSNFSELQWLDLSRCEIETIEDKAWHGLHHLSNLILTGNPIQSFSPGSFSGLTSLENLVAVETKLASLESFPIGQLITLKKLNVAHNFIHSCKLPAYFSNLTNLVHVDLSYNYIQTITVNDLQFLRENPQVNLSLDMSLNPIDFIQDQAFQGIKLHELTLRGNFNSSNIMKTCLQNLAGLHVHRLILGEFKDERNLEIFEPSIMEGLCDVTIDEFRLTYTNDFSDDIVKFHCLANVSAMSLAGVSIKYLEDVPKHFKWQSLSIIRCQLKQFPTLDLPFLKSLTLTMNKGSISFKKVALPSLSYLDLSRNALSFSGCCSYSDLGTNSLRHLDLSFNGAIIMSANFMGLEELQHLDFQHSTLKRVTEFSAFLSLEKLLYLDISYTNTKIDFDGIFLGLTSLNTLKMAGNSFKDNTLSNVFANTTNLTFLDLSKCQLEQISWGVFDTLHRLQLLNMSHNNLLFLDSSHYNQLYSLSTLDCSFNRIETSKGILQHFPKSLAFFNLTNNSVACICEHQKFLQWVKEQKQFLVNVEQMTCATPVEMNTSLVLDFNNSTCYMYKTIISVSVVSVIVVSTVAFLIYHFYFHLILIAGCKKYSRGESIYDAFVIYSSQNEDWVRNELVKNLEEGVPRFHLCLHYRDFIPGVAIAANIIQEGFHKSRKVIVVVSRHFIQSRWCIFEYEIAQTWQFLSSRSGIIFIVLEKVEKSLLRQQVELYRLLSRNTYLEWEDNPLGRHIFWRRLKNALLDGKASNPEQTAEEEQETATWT
T1 sequence (Q9JHF9 19-160): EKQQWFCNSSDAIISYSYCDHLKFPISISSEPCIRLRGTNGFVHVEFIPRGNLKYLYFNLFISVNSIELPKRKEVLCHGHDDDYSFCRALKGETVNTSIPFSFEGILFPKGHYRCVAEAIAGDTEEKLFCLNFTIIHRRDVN
The experiment in a line: SEAP assay, agonist dose response in mouse TLR4 HEK-Blue reporter cells. The following applies: for agonist profile: mouse TLR4 HEK-Blue reporter cells. Also on record: host or cells: HEK-Blue (HEK293-derived) reporter cells. Format: cell-based. On the procedure:
Human and mouse HEK-Blue reporter cells express human or mouse CD14, MD2, and TLR4 and secreted embryonic alkaline phosphatase (SEAP) under control of a promoter with binding sites for NFκB and AP-1 transcription factors (InvivoGen cat. nos. hkb-htlr4 and hkb-mtlr4). Cells were cultured as directed by the supplier, with the exception that Glutamax (ThermoFisher cat. no. 10569010) was used in place of L-glutamine, and TrypLE Express (ThermoFisher cat. no. 12605010) was used to release adherent cells for each passage. BALB/c mouse RAW264.7 and human THP-1 cells (ATCC® cat. nos. TIB-71 and TIB-202) were cultured in DMEM (4.5 g/L D-Glucose with 2 mM L-glutamine, 1 mM sodium pyruvate, 100 U/ml penicillin and 100 μg/ml streptomycin) supplemented with 10% heat-inactivated FBS. THP-1 cells were exposed to phorbol-12-myristate-13-acetate (PMA, InvivoGen cat no. tlrl-pma), 5 ng/ml, for 48 h prior to treatment with TLR4 agonists. Bone marrow-derived dendritic cells (BMDCs) were generated using C57BL/6 mouse femurs following the exact method published by Lutz et al. ([29]) except that 5 rather than 20 ng/ml recombinant GM-CSF was used to differentiate the DC. Human peripheral blood […] (PBMCs) were prepared from venous blood of healthy volunteers that had been collected using sodium citrate as anti-coagulant, 20 ml of which was mixed with 15 ml calcium- and magnesium-free Hank’s Balanced Saline Solution (HBSS) and then laid over 6 ml Histopaque®-1077 (1.077 g/ml, Sigma-Aldrich cat no. 10771) for density gradient centrifugation. The buffy coat layer was collected by pipette, washed once in HBSS, once in serum-free RPMI-1640, and then the PBMCs were resuspended in RPMI-1640 supplemented with 100 U/ml penicillin, 100 µg/ml streptomycin, 1 mM Na-Pyruvate, 2 mM L-glutamine, 50 μM βME and 10% heat-inactivated, male AB human serum for culture.
SEAP assays were performed to evaluate the extent to which TLR4 signaling was activated in HEK-Blue reporter cells expressing mouse or human receptors (CD14, MD2 and TLR4). Reporter cells were harvested when 70–80% confluent and plated in 96-well, flat-bottom microtiter plates either 1 h, one day or two days (5 × 10^4, 4 × 10^4 or 2 × 10^4 cells/well, respectively) before addition of TLR4 agonists for 18–24 h. Culture supernatants were transferred to U-bottom microtiter plates, centrifuged and transferred again to microtiter plates to ensure reporter cells were not present. The culture supernatants were added to QUANTI-BLUE substrate following instructions provided by the manufacturer (InvivoGen cat. nos. rep-qbl or rep-qbs) and incubated at 37°C in a tissue culture incubator. At successive intervals beginning 10 min after mixing the supernatants and substrate, the plates were placed in an Emax plate reader (Molecular Devices LLC) and optical density was measured at visible light wavelength […] (OD650). The shortest incubations at which dose response curve fits produced maximal R^2 ‘goodness of fit’ values, as determined by GraphPad Prism software, were used for analysis.
Pharmacological profiles of the TLR4 reagents were generated by performing dose response curves in one of four formats. 1) Agonist potency and efficacy (EC50 and height of dose plateau, respectively) were measured by diluting TLR4 reagents successively in complete culture medium [DMEM or RPMI supplemented with fetal bovine serum (FBS) or RPMI supplemented with human serum, depending on cell-type]. Half-log step dilutions were performed in 96-well, U-bottom microtiter plates using a multichannel pipette to transfer and mix the suspensions, with fresh tips used for each dilution step. One-tenth (20 μl) volumes from wells of the dilution plate were then transferred to wells containing cells that had been plated in nine-tenth volumes (180 μl) of culture medium. […]

As for `CCCCCCCCCCCC(=O)OC(CCCCCCCCCCC)CC(=O)NC1C(OCC2OC(O)C(NC(=O)CC(O)CCCCCCCCCCC)C(O)C2O)OC(CO)C(OP(=O)(O)O)C1OC(=O)CC(O)CCCCCCCCCCC` (stereo not shown) [ML4A], the “agonist profile” value is reported as “agonist only of mouse TLR4”. Moreover, the “efficacy relative to the full agonist PHAD” value (mouse TLR4 HEK-Blue, 100% = top dose plateau of PHAD) is reported as ~80%.

On to `CCCCCCCCCCCC(=O)OC(CCCCCCCCCCC)CC(=O)NC1C(OCC2OC(O)C(NC(=O)CC(O)CCCCCCCCCCC)C(O)C2O)OC(CO)C(OP(=O)(O)O)C1O` (stereo not shown) [ML3], for which the “agonist profile” value is “largely inactive”.

In the case of `CCCCCCCCCCCCCCCC(=O)OC(CCCCCCCCCCC)CC(=O)NC1C(O)OC(COC2OC(CO)C(OP(=O)(O)O)C(O)C2NC(=O)CC(CCCCCCCCCCC)OC(=O)CCCCCCCCCCC)C(O)C1O` (stereo not shown) [ML4B], the “agonist profile” value is “largely inactive”.
